In US8431596B2 (Cancer Research Technology Limited, priority 2007, dated 2013) one finds IC50 data, which are given here for 54 compounds.

The experiment deals with T1, AXL (human catalytic domain) (Homo sapiens, UniProt P30530).
T1 construct: purchased Upstate Ltd. 14-512
T1 sequence (P30530 473-894): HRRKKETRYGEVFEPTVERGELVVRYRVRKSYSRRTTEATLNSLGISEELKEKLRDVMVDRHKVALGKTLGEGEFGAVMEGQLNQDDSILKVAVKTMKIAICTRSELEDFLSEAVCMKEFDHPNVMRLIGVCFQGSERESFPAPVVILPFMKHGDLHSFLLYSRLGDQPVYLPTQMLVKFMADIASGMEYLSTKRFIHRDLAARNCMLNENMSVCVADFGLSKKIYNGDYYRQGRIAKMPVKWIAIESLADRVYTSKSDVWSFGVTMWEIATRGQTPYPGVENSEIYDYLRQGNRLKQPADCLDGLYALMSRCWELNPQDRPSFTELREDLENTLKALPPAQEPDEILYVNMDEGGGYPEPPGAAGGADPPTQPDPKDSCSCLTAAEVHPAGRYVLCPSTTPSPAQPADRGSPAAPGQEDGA
The experiment in a line: AXL (human catalytic domain) Enzyme Activity Assay (IMAP fluorescence polarisation). In kind it is biochemical. In a few lines: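 IMAP FP readout (Ex485/Em535, after overnight binding) measured inhibition of the human AXL catalytic domain (aa473-894, 15 nM final) acting on 100 nM 5FAM-CSK-tide at 150 μM ATP, equal to KM. Reactions ran 60 min at room temperature in pH 7.0 HEPES buffer; IC50 from 10-point curves.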

[1] abbreviates: first data set, recombinant AXL isoform 1 aa473-894, 150 μM ATP.
The mark [2] stands for this setting: further data set (WW-001 through WW-169, XX-001 through XX-469, YY-001 through YY-016, ZZ-001 through ZZ-003), 150 μM ATP.

A value given as a limit tells only on which side of the number the result lay.

`COc1ccc(-c2cccc3nc(Nc4ccc(OCCNCc5ccccn5)cc4)nn23)cc1` [XX-029]: the IC50 reads like this: under setting [1], under 1000 nM; under setting [2], 100 to 1000 nM.

Consider `CCc1nnc(NCCOc2ccc(Nc3nc4cccc(-c5ccc(OC)cc5)n4n3)cc2)[nH]1` [XX-030], for which the IC50 reads like this: under setting [1], under 1000 nM; under setting [2], 100 to 1000 nM.

As for `COCCNCCOc1ccc(Nc2nc3cccc(-c4ccc(OC)cc4)n3n2)cc1` [XX-031], the IC50 by setting is: under setting [1], under 1000 nM; under setting [2], 100 to 1000 nM.

`COc1ccc(-c2cccc3nc(Nc4ccc(OCCNCc5ccncc5)cc4)nn23)cc1` [XX-032]: the IC50 is, setting by setting: under setting [1], under 1000 nM; under setting [2], at most 100 nM.

For `COc1ccc(-c2cccc3nc(Nc4ccc(OCCNCc5cccnc5)cc4)nn23)cc1` [XX-033], the IC50 under setting [1] is under 1000 nM and the IC50 under setting [2] lay in the range of 100 to 1000 nM.

For the compound `COc1ccc(-c2cccc3nc(Nc4ccc(OCCNCc5ccc(N)cc5)cc4)nn23)cc1` [XX-034], the IC50 is, setting by setting: under setting [1], under 1000 nM; under setting [2], 100 to 1000 nM.

With `CNC(=O)COc1ccc(Nc2nc3cccc(-c4ccc(OC)cc4)n3n2)cc1` [XX-035], the IC50 runs as follows: under setting [1], 1000 to 10000 nM; under setting [2], at most 100 nM.

In the case of `COc1ccc(-c2cccc3nc(Nc4ccc(C(=O)NCCN(C)C)cc4)nn23)cc1` [XX-036], the IC50 is under 1000 nM under setting [1] and 1000 to 10000 nM under setting [2].

`COc1ccc(-c2cccc3nc(Nc4cccc(C(=O)NCCN(C)C)c4)nn23)cc1` [XX-037]: the IC50 under setting [1] was under 1000 nM and the IC50 under setting [2] is at most 100 nM.

As for `c1cc(-c2ccc(N3CCOCC3)cc2)n2nc(Nc3ccc(OCCN4CCCC4)cc3)nc2c1` [XX-038], the IC50 by setting is: under setting [1], under 1000 nM; under setting [2], at most 100 nM.

The compound `COc1ccc(-c2cccc3nc(Nc4ccc(OCCCN5C(=O)c6ccccc6C5=O)cc4)nn23)cc1` [XX-039, 2-(3-{4-[5-(4-methoxy-phenyl)-[1,2,4]triazolo[1,5-a]pyridin-2-ylamino]-phenoxy}-propyl)-isoindole-1,3-dione] displayed an IC50 under setting [2] of 100 to 1000 nM.

Consider `CNCCCOc1ccc(Nc2nc3cccc(-c4ccc(OC)cc4)n3n2)cc1` [XX-040], for which the half-inhibitory concentration (IC50) under setting [1] was under 1000 nM.

For `COc1ccc(-c2cccc3nc(Nc4ccc(OCCCN)cc4)nn23)cc1` [XX-041, [4-(3-Amino-propoxy)-phenyl]-[5-(4-methoxy-phenyl)-[1,2,4]triazolo[1,5-a]pyridin-2-yl]-amine], the IC50 under setting [1] is under 1000 nM and the IC50 under setting [2] is 100 to 1000 nM.

Under setting [2], `COc1ccc(-c2cccc3nc(Nc4cccc(C(=O)NCCO)c4)nn23)cc1` [XX-042] had an IC50 of 100 to 1000 nM.

As to `c1cc(-c2ccc3c(c2)CCO3)n2nc(Nc3ccc(OCCN4CCCC4)cc3)nc2c1` [XX-044], the IC50 under setting [1] was under 1000 nM.

For `COc1ccc(-c2cccc3nc(Nc4cccc(OCCCN)c4)nn23)cc1` [XX-045], the IC50 under setting [1] is under 1000 nM and the IC50 under setting [2] fell in the range of 100 to 1000 nM.

As for `COc1ccc(-c2cccc3nc(Nc4ccc(OCCN)cc4)nn23)cc1` [XX-046], the IC50 under setting [1] was under 1000 nM and the IC50 under setting [2] is at most 100 nM.

Regarding `c1cc(-c2ccc3c(c2)OCO3)n2nc(Nc3ccc(OCCN4CCCCC4)cc3)nc2c1` [XX-047], the IC50 under setting [1] is under 1000 nM and the IC50 under setting [2] lay in the range of 100 to 1000 nM.

Consider `CN(C)CCOc1ccc(Nc2nc3cccc(-c4ccc5c(c4)OCO5)n3n2)cc1` [XX-048], for which the IC50 by setting is: under setting [1], under 1000 nM; under setting [2], 100 to 1000 nM.

As for `CNCCOc1ccc(Nc2nc3cccc(-c4ccc5c(c4)OCO5)n3n2)cc1` [XX-049], the IC50 was under 1000 nM under setting [1] and 100 to 1000 nM under setting [2].

On to `c1cc(-c2ccc3occc3c2)n2nc(Nc3ccc(OCCN4CCCCC4)cc3)nc2c1` [XX-050], for which the IC50 was under 1000 nM under setting [1] and at most 100 nM under setting [2].

Turning to `CN(C)CCOc1ccc(Nc2nc3cccc(-c4ccc5occc5c4)n3n2)cc1` [XX-051], the IC50 was under 1000 nM under setting [1] and at most 100 nM under setting [2].

Take `c1cc(-c2ccc3c(c2)CCO3)n2nc(Nc3ccc(OCCN4CCCCC4)cc3)nc2c1` [XX-052]: the IC50 by setting is: under setting [1], under 1000 nM; under setting [2], 100 to 1000 nM.

On to `CN(C)CCOc1ccc(Nc2nc3cccc(-c4ccc5c(c4)CCO5)n3n2)cc1` [XX-053], for which the IC50 runs as follows: under setting [1], under 1000 nM; under setting [2], at most 100 nM.

As for `c1cc(-c2ccc3c(c2)OCCO3)n2nc(Nc3ccc(OCCN4CCCCC4)cc3)nc2c1` [XX-054], the IC50 is under 1000 nM under setting [1] and at most 100 nM under setting [2].

Regarding `CN(C)CCOc1ccc(Nc2nc3cccc(-c4ccc5c(c4)OCCO5)n3n2)cc1` [XX-055], the IC50 is, setting by setting: under setting [1], under 1000 nM; under setting [2], at most 100 nM.

Turning to `CNc1ccc(Nc2nc3cccc(-c4ccc(OC)cc4)n3n2)cc1` [XX-056], the IC50 lay within 1000 to 10000 nM under setting [1] and 1000 to 10000 nM under setting [2].

Consider `COc1ccc(-c2cccc3nc(Nc4ccc(N(C)C)cc4)nn23)cc1` [XX-057], for which the IC50 under setting [1] was 1000 to 10000 nM and the IC50 under setting [2] fell in the range of 1000 to 10000 nM.

Turning to `c1cc(-c2ccc3occc3c2)n2nc(Nc3ccc(N4CCNCC4)cc3)nc2c1` [XX-058], the IC50 is under 1000 nM under setting [1] and at most 100 nM under setting [2].

`c1cc(-c2ccc3c(c2)CCO3)n2nc(Nc3ccc(N4CCNCC4)cc3)nc2c1` [XX-059]: the IC50 was under 1000 nM under setting [1] and 100 to 1000 nM under setting [2].

Take `c1cc(-c2ccc3c(c2)OCCO3)n2nc(Nc3ccc(N4CCNCC4)cc3)nc2c1` [XX-060]: the IC50 under setting [1] is under 1000 nM and the IC50 under setting [2] was at most 100 nM.

For `COc1ccc(-c2cccc3nc(Nc4cccc(N)c4)nn23)cc1` [XX-061, N-[5-(4-Methoxy-phenyl)-[1,2,4]triazolo[1,5-a]pyridin-2-yl]-benzene-1,3-diamine], the IC50 runs as follows: under setting [1], 1000 to 10000 nM; under setting [2], 1000 to 10000 nM.

On to `COc1ccc(-c2cccc3nc(Nc4ccc5c(c4)OCCCO5)nn23)cc1` [XX-062], for which the IC50 is 1000 to 10000 nM under setting [1] and 1000 to 10000 nM under setting [2].

For the compound `COc1ccc(-c2cccc3nc(Nc4ccc(S(N)(=O)=O)cc4)nn23)cc1` [XX-063], the IC50 by setting is: under setting [1], 1000 to 10000 nM; under setting [2], 1000 to 10000 nM.

Consider `COc1ccc(-c2cccc3nc(Nc4ccc(OCCN(C)Cc5ccccc5)cc4)nn23)cc1` [XX-064], for which the IC50 was under 1000 nM under setting [1] and 100 to 1000 nM under setting [2].

For `COc1ccc(-c2cccc3nc(Nc4ccc(OCCN(C)CCO)cc4)nn23)cc1` [XX-065], the IC50 reads like this: under setting [1], under 1000 nM; under setting [2], at most 100 nM.

Regarding `COc1ccc(-c2cccc3nc(Nc4ccc(OCCN5CCCC5)c(OC)c4)nn23)cc1` [XX-066], the IC50 is under 1000 nM under setting [1] and at most 100 nM under setting [2].

On to `COc1ccc(-c2cccc3nc(Nc4ccc(OCCN(C)Cc5ccc(N)cc5)cc4)nn23)cc1` [XX-067], for which the IC50 is, setting by setting: under setting [1], under 1000 nM; under setting [2], at most 100 nM.

Regarding `NCc1cc2cc(Nc3nc4cccc(-c5ccc6c(c5)OCCO6)n4n3)ccc2o1` [XX-068], the IC50 reads like this: under setting [1], under 1000 nM; under setting [2], at most 100 nM.

Consider `CNCCCOc1cccc(Nc2nc3cccc(-c4ccc5c(c4)OCCO5)n3n2)c1` [XX-069], for which the IC50 by setting is: under setting [1], under 1000 nM; under setting [2], at most 100 nM.

For the compound `Cc1cc(Nc2nc3cccc(-c4ccc5c(c4)OCCO5)n3n2)ccc1OCC(N)=O` [XX-071], the IC50 by setting is: under setting [1], 1000 to 10000 nM; under setting [2], 1000 to 10000 nM.

On to `CC(Oc1ccc(Nc2nc3cccc(-c4ccc5c(c4)OCCO5)n3n2)cc1)C(N)=O` (centres unmarked) [XX-072], for which the IC50 is under 1000 nM under setting [1] and 100 to 1000 nM under setting [2].

As to `NC(=O)COc1ccc(Nc2nc3cccc(-c4ccc5c(c4)OCCO5)n3n2)cc1` [XX-073], the IC50 is, setting by setting: under setting [1], under 1000 nM; under setting [2], 100 to 1000 nM.

`CN(C)CCOc1cccc(Nc2nc3cccc(-c4ccc5c(c4)OCCO5)n3n2)c1` [XX-074]: the IC50 is under 1000 nM under setting [1] and at most 100 nM under setting [2].

On to `CCN(CC)CCOc1ccc(Nc2nc3cccc(-c4ccc5c(c4)OCCO5)n3n2)cc1` [XX-075], for which the IC50 was under 1000 nM under setting [1] and at most 100 nM under setting [2].

In the case of `CCN(CC)CCOc1cccc(Nc2nc3cccc(-c4ccc5c(c4)OCCO5)n3n2)c1` [XX-076], the IC50 under setting [1] is under 1000 nM and the IC50 under setting [2] is at most 100 nM.

Turning to `CN1CCN(CCOc2ccc(Nc3nc4cccc(-c5ccc6c(c5)OCCO6)n4n3)cc2)CC1` [XX-077], the IC50 under setting [1] is under 1000 nM and the IC50 under setting [2] is at most 100 nM.

Consider `CN(C)CCOc1ncc(Nc2nc3cccc(-c4ccc5c(c4)OCCO5)n3n2)cn1` [XX-078], for which the IC50 under setting [1] was under 1000 nM and the IC50 under setting [2] lay in the range of 100 to 1000 nM.

Turning to `CN(C)CCOc1cc(Nc2nc3cccc(-c4ccc5c(c4)OCCO5)n3n2)ccn1` [XX-079], the IC50 reads like this: under setting [1], under 1000 nM; under setting [2], at most 100 nM.

On to `CN(C)CCNC(=O)c1cccc(Nc2nc3cccc(-c4ccc5c(c4)OCCO5)n3n2)c1` [XX-080], for which the IC50 was under 1000 nM under setting [1] and at most 100 nM under setting [2].

In the case of `CNCCOc1cccc(Nc2nc3cccc(-c4ccc5c(c4)OCCO5)n3n2)c1` [XX-081], the IC50 is, setting by setting: under setting [1], under 1000 nM; under setting [2], at most 100 nM.

For the compound `CN(C)C/C=C/c1ccc(Nc2nc3cccc(-c4ccc5c(c4)OCCO5)n3n2)cc1` [XX-082], the IC50 is under 1000 nM under setting [1] and at most 100 nM under setting [2].

`CN(C)C/C=C/c1cccc(Nc2nc3cccc(-c4ccc5c(c4)OCCO5)n3n2)c1` [XX-083]: the IC50 is, setting by setting: under setting [1], under 1000 nM; under setting [2], at most 100 nM.

Regarding `CN(C)CCNC(=O)c1ccc(Nc2nc3cccc(-c4ccc5occc5c4)n3n2)cc1` [XX-084], the IC50 is, setting by setting: under setting [1], under 1000 nM; under setting [2], at most 100 nM.

One may read the IC50 as the concentration at which inhibition is half-maximal.
